Legend:
[1] = test system: rat; assay: Rat intraplantar injection model, mean clinical score (Example 11); conditions: each of 15 min and 90 min
Excerpt: FIG. 31 presents mean clinical score of cycle 1 (points). Increased/Higher score indicates more observations of adverse events.
FIG. 32 presents mean clinical score of cycle 2 (points). Increased/Higher score indicates more observations of adverse events.
FIGS. 31 and 32 present mean clinical score for Cycles 1 and 2 respectively.

[2] = test system: Sprague Dawley rats; assay: Rat intraplantar injection model, von Frey test (Example 9); assay type: in vivo, Sprague Dawley rat; conditions: 1 μg/mL or 100 μg/mL; 15 and 90 minutes post-injection
Procedure: (§1) Male Sprague Dawley rats (n=112) were allocated into 14 groups of 8/group. The study was run in 2 cycles, on consecutive days, 7 groups per cycle. Each cycle was composed of a Saline group, PBS group, which served as the control, and also treprostinil at a dose of 100 μg/mL or 1 μg/mL.
(§2) Animals were administered 0.1 mL of test material by subcutaneous injection into the paw pad (Intraplantar injection) at time zero. Animals were subsequently evaluated for their response to mechanical (von Frey filaments) and thermal stimuli, 15 and 90 minutes post-injection. The von Frey test was conducted prior to the thermal test, which followed immediately within minutes for each animal. In addition, clinical observation scoring of the animal's reaction to injection was conducted. FIG. 16 schematically illustrates the study design.
Mechanical pain sensitivity was tested using the von Frey test, which measures the withdrawal force threshold of the animals. The lower the force applied represents a greater sensitivity to the stimulus. The von Frey test was performed 15 and 90 minutes post-Test Item injection.

[3] = test system: Sprague Dawley rats; assay: Rat intraplantar injection model, clinical observation score (Example 9); assay type: in vivo, Sprague Dawley rat
Procedure: as §1, §2
A Clinical observation score was assigned by assessing for redness, swelling and paw placement.

[4] = test system: Sprague Dawley rats; assay: Cardiovascular assessment by radiotelemetry following subcutaneous injection (Example 12); assay type: in vivo, Sprague Dawley rat
Procedure: Clinical observations were performed at approximately 6 hours prior to dosing, at the completion of dosing and at approximately 4 hours postdosing.

[5] = test system: Sprague Dawley rats; assay: Rat intraplantar injection model, thermal pain sensitivity (Example 10); assay type: in vivo, Sprague Dawley rat
Procedure: Male Sprague Dawley rats (n=56) were allocated into 7 groups of 8 animals per group. […] Each group was compared to the phosphate buffer (50-mM phosphate buffer with 50-mM sodium chloride at pH=7.4) treated group, which served as the control (Group 1).
Animals were administered 0.1 mL of test material by subcutaneous injection into the paw pad (Intraplantar injection) at time zero. Then, the animals were subsequently evaluated for their response to mechanical (von Frey filaments) and thermal stimuli, 15 and 90 minutes post-injection. The von Frey test was conducted prior to the thermal test, which followed immediately within minutes for each animal. In addition, clinical observation scoring of the animal's reaction to injection was conducted.
The sensitivity of animals to a thermal pain stimulus was assessed immediately following the von Frey test. The time until withdrawal of the right-injected leg from a heat source was measured, and the lower (faster) the time of response represents a greater sensitivity to the stimulus. The test was performed 15 and 90 minutes post-test item injection.

[6] = 0.1 mg/kg SC (first statement as printed)

CCCCC[C@H](O)CC[C@@H]1[C@H]2Cc3cccc(OCC(=O)O)c3C[C@H]2C[C@H]1O [Treprostinil]
mean clinical score of cycle 2 ([1]; 1 μg/mL): non-zero | mean clinical score of cycle 1 ([1]; 100 μg/mL): non-zero | von Frey withdrawal force threshold vs PBS-treated group [2]: reduced withdrawal force threshold | clinical score ([3]; 1 μg/mL (cycle 2), both time points (15 and 90 min)): non-zero | clinical score vs PBS treated group ([3]; 1 μg/mL or 100 μg/mL, 15 and 90 minutes post-injection): statistically significant increase in the clinical score | clinical score ([3]; 100 μg/mL (cycle 1), 15 min): non-zero | clinical score vs PBS group ([3]; 100 μg/mL (cycle 1), 90 minutes post-injection): non-zero | body temperature change ([4]; 0.000125 mg/kg or 0.00125 mg/kg SC): No significant changes | diastolic blood pressure change ([4]; 0.03 mg/kg SC): marginally lower | mean blood pressure change ([4]; 0.03 mg/kg SC): marginally lower | mean blood pressure, time of nadir ([4]; 0.03 mg/kg SC): 30 min | systolic blood pressure change ([4]; 0.03 mg/kg SC): marginally lower | body temperature changes resolved by ([4]; 0.1 mg/kg SC): approximately 3 hours | diastolic blood pressure lowering persisted through ([4]; 0.1 mg/kg SC): 90 min | diastolic blood pressure, time of nadir ([4]; 0.1 mg/kg SC): 30 min | mean blood pressure lowering persisted through ([4]; 0.1 mg/kg SC): 90 min | mean blood pressure, time of nadir ([4]; 0.1 mg/kg SC): 30 min | systolic blood pressure lowering persisted through ([4]; 0.1 mg/kg SC): 90 min | systolic blood pressure, time of nadir ([4]; 0.1 mg/kg SC): 30 min | body temperature change [4, 6]: Marginally lower | body temperature change persisted through [4, 6]: approximately 3 hours | body temperature changes resolved by ([4]; 0.3 mg/kg SC): ~4 h | diastolic blood pressure lowering persisted through ([4]; 0.3 mg/kg SC): 180 min | diastolic blood pressure, time of nadir ([4]; 0.3 mg/kg SC): 20 min | mean blood pressure lowering persisted through ([4]; 0.3 mg/kg SC): 180 min | mean blood pressure, time of nadir ([4]; 0.3 mg/kg SC): 20 min | systolic blood pressure lowering persisted through ([4]; 0.3 mg/kg SC): 120 min | systolic blood pressure, time of nadir ([4]; 0.3 mg/kg SC): 20 min | pulse pressure change ([4]; 0.3 mg/kg SC, from 20 to 40 minutes postdosing): Marginally lower | body temperature change ([4]; 0.1 and 0.3 mg/kg SC): Significantly lowered | diastolic blood pressure change ([4]; 0.1 and 0.3 mg/kg SC): Significantly lower | diastolic blood pressure, earliest time point of lowering ([4]; 0.1 and 0.3 mg/kg SC): 10 min | mean blood pressure change ([4]; 0.1 and 0.3 mg/kg SC): Significantly lower | mean blood pressure, earliest time point of lowering ([4]; 0.1 and 0.3 mg/kg SC): 10 min | systolic blood pressure change ([4]; 0.1 and 0.3 mg/kg SC): Significantly lower | systolic blood pressure, earliest time point of lowering ([4]; 0.1 and 0.3 mg/kg SC): 10 min | dose resulting in significantly lower body temperature ([4]; single SC injection): ≥ 0.030 mg/kg | dose resulting in significantly lower systolic, diastolic, mean arterial blood pressure ([4]; single SC injection): ≥ 0.1 mg/kg | heart rate change ([4]; single SC injection, all doses): Higher heart rates | time by which heart rate changes resolved / recovered postdosing ([4]; single SC injection, all groups): approximately 5 hours | diastolic blood pressure change ([4]; ≤0.030 mg/kg SC): No meaningful changes | mean blood pressure change ([4]; ≤0.030 mg/kg SC): No meaningful changes | systolic blood pressure change ([4]; ≤0.030 mg/kg SC): No meaningful changes | thermal paw withdrawal time vs phosphate buffer treated group ([5]; 1 μg/mL or 100 μg/mL, 15 minutes post-administration): statistically significantly faster paw withdrawal time | sensitivity to heat stimulation vs vehicle (phosphate buffer) group ([5]; 100 μg/mL, 90 minutes post-injection): statistically significantly increased sensitivity

From patent US11672775B2, “Treprostinil prodrugs” (United Therapeutics Corporation, priority 2016, dated 2023)
